The nature of one data set: Bioavailability studies. As to conditions: Swiss albino mice, at a 100 mg/kg dose. It is filed as in vivo.
A further data set concerns HIF-1α and HIF-2α. The experiment in a line: Western blots for HIF-1α and HIF-2α in ccRCC cells. It counts as cell-based, human. As to conditions: 786-0 or RCC10 ccRCC cells, 24h, relative to GAPDH. As for the experimental part: (§1) Western blots were performed to determine the effects of the compounds on levels of HIF-2α and other relevant proteins, whereas qPCR was performed to determine the effects of compounds on transcript levels of HIF target genes. 786-0 or RCC10 cells were plated at 1×10E5 cells/well in 2 ml DMEM with 10% FBS/well in 6-well tissue culture plates. Cells were allowed to adhere overnight in a humidified incubator at 37° C. with 5% CO2, after which the appropriate concentrations of compounds in DMSO were added. DMSO concentrations were kept constant in all wells. After 24 h exposure to the compounds, cells were lysed and subjected to western blotting according to standard protocols. Antibodies for HIF-1α and HIF-2α and GAPDH were purchased from Cell Signaling Technology (Danvers, MA), whereas antibodies to IRP2 and pVHL were from Santa Cruz Biotechnology (Dallas, TX), and GPX4 antibody was from R&D Systems, Inc (Minneapolis, MN). Representative data in FIG. 2 show a dose-dependent effect of compounds in decreasing HIF-1/2α. Compounds also impact cellular iron sensing given by increased IRP2, which taken together indicate that cells sense decreased amounts of available iron, which triggers the iron starvation response initiated by IRP2 stabilization. Representative data shown in FIG. 3D show a dose dependent effect of the compounds on GPX4, which may indicate decreased resistance to ferroptosis. […] The data also show increased expression of ISCA2 with pVHL re-expression.
Background: A western blot detects proteins with antibodies after separation by electrophoresis.

For another data set, the system named is IRP2 and GPX4. Briefly: Western blots for cellular iron-sensing machinery (IRP2, GPX4). It is filed as cell-based, human. As to conditions: 786-0 or RCC10 ccRCC cells, 24h, relative to GAPDH. As for the experimental part:
as §1

Data set [1] relates to HIF-2α Iron-Responsive Element (IRE). Briefly: HIF-2α IRE-Luc reporter assay. It is filed as cell-based, human. The conditions noted are these: 786-0 cells stably expressing HIF-2α IRE-Luc, 24h. As for the experimental part:
Screens for inhibitory activity of compounds described herein were performed using 786-0 ccRCC cells that stably express HRE-Luc: 5 copies of the hypoxia-responsive element (HRE) fused to the pGL3 luciferase reporter (Promega Corp, Madison WI). 786-0 cells are pVHL deficient and thus constitutively express HIF-2α independently of cellular oxygen tension. Since 786-0 cells lack HIF-1α, HRE-driven luciferase activity is primarily HIF-2α driven, and has been previously validated. Cells were maintained at log phase growth in […] (DMEM) with 10% FBS in a humidified incubator at 37° C. with 5% CO2. For screening assays, cells were seeded at a density of 4,000 cells in 50 μl of complete media/well in quadruplicate wells/point in a 96-well plate. After 24 h, 50 μl of a 2× concentration of test compound was added to each well. […] After 24 h treatment, luciferase activity was measured using the Steady-Glo Luciferase assay system (Promega Corp) according to the manufacturer's protocol. Cell viability was measured in quadruplicate parallel wells using resazurin as recommended by the manufacturer (R&D systems, Minneapolis, MN). […] Representative data determined using Steady-Glo luciferase and resazurin are shown in FIGS. 1A and 1B respectively, with error bars showing SD. […]

The test system of a further data set is 786-0 cells. Briefly: TBARS assay of lipid peroxidation (MDA). It counts as cell-based, human. As to conditions: 48h treatment. As for the experimental part: Malondialdehyde (MDA) is an end product of lipid peroxidation products and can be used to indicate lipid peroxidation, which is a hallmark of ferroptosis. MDA adducts were quantitated in cells and tumor tissue using the TBARS-TCA Method kit (Cat 700870, Cayman Chemicals, Ann Arbour Michigan) according to the manufacturer's protocol. Briefly, 786-0 cells were seeded at 1.75×10E6 cells in T75 cm^2 flasks, allowed to adhere overnight in a humidified incubator at 37° C. with 5% CO2, then treated with test compounds for 48 h, RSL3 (as positive control for 6h) or DMSO control (volume of DMSO kept constant for all flasks). Cells were detached by trypsinization, pelleted by centrifugation, washed in PBS twice, resuspended in 200 μL PBS, then sonicated for 3 minutes in a sonicating water bath. Representative data showing effects of 26HCL or 62TFA in comparison to RSL3, a classical ferroptosis inducer, is shown in FIG. 5. For MDA quantitation in tumor chunks, 20-50 mg of tumor tissue was homogenized in 200-500 μL of PBS, then sonicated for 5 minutes in a sonicating water bath. The cell or tumor lysates were subjected to the colorimetric detection methods described in manufacturer's protocol. MDA concentration of cells was determined in comparison to a standard curve of MDA stock solution provided by the manufacturer. Data was plotted using Prism GraphPad 9.3.1 Software. […]

In the next data set the test system is RENCA syngeneic tumors. Briefly: RENCA syngeneic tumor model, immunohistochemistry of tumors. It counts as in vivo. As to conditions: Balb/c mice, once daily oral dosing, 14 days. The protocol: A similar study was performed using RENCA cells, which are derived from a renal tumor that arose spontaneously in a male Balb/c mouse. RENCA cells were purchased from ATCC and 2 million cells were implanted into the flanks of Balb/c mice. Once tumors attained an average size of approximately 75-100 mm^3, mice were stratified into two groups and animals treated with either vehicle or 70 mg/kg 26HCL once daily PO. Mouse tumor volumes were measured three times a week until tumors reached approximately 3000 mm^3, or mice required euthanasia. […] FIG. 10B through 10D show western blot quantitation and MDA quantitation by TBARs assay, as performed for the 786-0 xenografts.
Similar studies were performed using 786-0 and RENCA tumor models treated with 62TFA. […] Immunohistochemistry was performed using standard techniques using CD8 (CST98941) and CD31 (CST77699) purchased from Cell Signaling Technologies.

Data set [2] concerns RCC4 or 786-0 cells±pVHL re-expression. Briefly: Cell viability with pVHL re-expression. It counts as cell-based, human. The conditions noted are these: 48h.

On to `COc1nccc2[nH]c(Nc3nnc([C@H]4CC[C@@H](OC)CC4)o3)nc12` [Compound 62TFA, N-(4-methoxy-1H-imidazo[4,5-c]pyridin-2-yl)-5-((1s,4s)-4-methoxycyclohexyl)-1,3,4-oxadiazol-2-amine], for which, in the data set “Bioavailability studies”, the half-life worked out at 7 h. The “Bioavailability F” value in the data set “Bioavailability studies” (oral) is reported as 55%. Further, the “effect on HIF-1α and HIF-2α protein (Western blot)” value in the data set on HIF-1α and HIF-2α was “decreases HIF-1α and HIF-2α”. Moreover, the “effect on IRP2 protein (Western blot)” value with IRP2 and GPX4 was “increases IRP2”. Moreover, the “effect on IRE-luciferase reporter activity normalized to resazurin” value in data set [1] is on record as “decrease IRE-mediated translation of HIF-2α”. In addition, the “lipid peroxidation (MDA-TBA adducts)” value in the data set with 786-0 cells is given as “induce lipid peroxidation to an extent comparable to the ferroptosis inducer RSL3”. In the data set with RENCA syngeneic tumors, the “CD8 cytotoxic T-cell infiltration (immunohistochemistry of tumors)” value is listed as “increases CD8-T cell infiltration” and the “angiogenesis (CD31 immunohistochemistry of tumors)” value was “markedly decreases angiogenesis”. In addition, in data set [2], the “effect of pVHL re-expression on cell viability response to compound” value is “re-expression of pVHL promotes resistance”.

The term half-life denotes how long it takes for the measured level to halve.

The values are drawn from patent US20250346588A1, “IMIDAZOPYRIDINE AND OXAZOLOPYRIDINE DERIVATIVES AND ANALOGS THEREOF, METHODS OF PREPARATION THEREOF, METHODS OF HIF-1/2A PATHWAY INHIBITION, AND INDUCTION OF FERROPTOSIS” (KUDA THERAPEUTICS, INC., priority 2022, published 2025).
